# According to US20180289655A1, “Methods and Compositions for the Intravenous Administration of Fumarates for the Treatment of Neurological Diseases” (Biogen MA Inc., priority 2015, published 2018):
# “And” between values parts separate entries of the source, which are not always exact repeats. Equal values may be shown once. “Also recorded” adds a separate entry of the source. Where a name gives a salt, the structure may show the parent alone.
# Legend:
# [1] = (^14C)DMF distribution viewed in sagittal section (QWBA); assay type: in vivo, mice; settings: 10 and 60 minutes
# [2] = MMF exposure in plasma and tissues after DMF PO/IV or MMF IV (LC-MS/MS); assay type: in vivo, C57BL/6 mice
# Method: Aliquots (25 μL) of either plasma or tissue homogenate samples were extracted by protein precipitation with acetonitrile containing 4C13-MMF as the internal standard. For tissue samples, aliquots of homogenization solution (plasma with 12.5 mg/mL of NaF) were added to the tissue samples. The tissue samples were homogenized at 6.5 m/s for 60 seconds on a Fast Prep Tissue Homogenizer prior to protein precipitation. Concentrations of MMF in plasma, brain, jejunum and kidney samples were determined using qualified LC-MS/MS assays in the respective matrices. Data collections and integrations were accomplished using an API 5500 triple quadrupole mass spectrometer with a turbo ion spray interface (AB Sciex, Foster City, Calif.), and Analyst software (version 1.6.1). The peak area ratios of MMF relative to its internal standard were used to construct a standard curve using a quadratic regression with a 1/x^2 weighting. The lower limits of quantitation (LLOQ) were 1 ng/mL for the three tissue assays and 10 ng/mL for the plasma assay, respectively. The performances of the assays were monitored by the precision and accuracy of the standards and quality control samples.
# MMF exposure levels were evaluated 10 minutes and 2 hours after dosing, while pharmacodynamic transcriptional responses were analyzed at 2 hours post-dose.
# (§1) At the 10-minute time point, 4 animals from each group were sacrificed, with plasma and tissues (brain, jejunum and kidney) collected to determine MMF exposure. Two hours after dosing, the remaining 4 animals were sacrificed, and plasma and tissues were collected. Tissue samples from the 2-hour time point were divided, with half of each sample used for MMF exposure analysis, and half for RNA extraction and qRT-PCR to evaluate the expression of Nrf2 target genes.
# MMF exposure levels were evaluated 10 minutes and 2 hours after dosing, while transcriptional pharmacodynamic responses were analyzed at 2 and 6 hours post-dose. A complete blood count (CBC) with differential panel was performed at 10 minutes, 2 hours, and 6 hours post-dose.
# (§2) Ten minutes after dosing, 4 animals from each group were sacrificed, and plasma and tissues (brain, kidney, jejunum and spleen) were collected to quantify MMF exposure levels, as well as whole blood to perform CBC. Two hours post-dose, another 4 animals from each group were sacrificed, and plasma, whole blood, and tissues were collected. Tissue samples from the 2-hour time point were split, with half of each sample used for MMF exposure analysis, and half for RNA extraction/qRT-PCR to evaluate the expression of Nrf2 target genes. Six hours after dosing, the last 4 animals from each group were sacrificed, and whole blood and tissues were collected.
# Akr1b8 = assay: qRT-PCR transcript fold-change in tissues after DMF or MMF dosing; assay type: in vivo, C57BL/6 mice; settings: MMF IV 30 mpk, Study 2
# Method: (§3) For RNA preparation, frozen tissues were placed in 2 mL RNAse-free 96-well blocks with 1.5 mL QIAzol Lysis Reagent (QIAgen) and a 3.2 mm stainless steel bead (BioSpec Products, Bartlesville, Okla.). Tissues were disrupted for four cycles of 45 seconds in a Mini-Beadbeater (Biospec Products). RNA was extracted with chloroform and the aqueous phase was mixed with an equal volume of 70% ethanol. Extracted RNA was applied to RNeasy 96 plates and purified by the spin method according to the manufacturer's protocol (RNeasy 96 Universal Tissue Protocol, QIAgen, Hilden Germany).
# (§4) Samples were reverse-transcribed into cDNA according to the manufacturer protocols using the High Capacity cDNA Reverse Transcription Kit (Life Technologies, Carlsbad, Calif.) and analyzed by qRT-PCR. Mouse target gene primers and 6-FAM™ dye-labeled TaqMan® MGB™ probes (Life Technologies) were used. Reactions containing 100 ng of cDNA, 900 nM of each primer, and 250 nM TaqMan probes were cycled on a QuantStudio 12 k-flex system (Life Technologies) once for 10 minutes at 95° C., followed by 40 cycles of 95° C. for 10 seconds and 60° C. for 1 minute. All samples were measured in triplicate with Gapdh as a normalizing gene. Taqman primer/probe sets from Life Technologies included: Akr1b8 (Mm00484314_m1); Gapdh (Mm03302249_g1); Gclc (Mm00802655_m1); Hmox1 (Mm00516005_m1); Nqo1 (Mm01253561_m1); and Osgin1 (Mm00660947_m1). Comparative CT method was used to calculate fold changes and samples were normalized relative to time-matched vehicle control.
# as §1, §2
# (§5) Table 7 is a summary table of fold changes, relative to time-matched vehicle controls, for indicated genes in indicated tissues. Values indicate the mean fold-change±the standard deviation (n=4). Changes that were significant from vehicle are indicated in bold (one way ANOVA with Tukey's multiple comparison test).
# (§6) A CBC with differential panel was performed at 10 minutes post-last dose via facial vein bleeding, and at 2 hours after the last dose, pharmacodynamic Nrf2 transcriptional responses were analyzed in tissues from the same animals. Histopathology was also performed on regions of the tail in a pilot toxicology study.
# Gclc = assay: as above; assay type: in vivo, C57BL/6 mice; settings: MMF IV 30 mpk, Study 2
# Method: as §3, §4, §1, §2, §5, §6
# Hmox1 = assay: as above; assay type: in vivo, C57BL/6 mice; settings: MMF IV 30 mpk, Study 2
# Method: as §3, §4, §1, §2, §5, §6
# Nqo1 = assay: as above; assay type: in vivo, C57BL/6 mice; settings: MMF IV 30 mpk, Study 2; for Nqo1 fold change vs vehicle, jejunum / Nqo1 fold change vs vehicle, kidney: 30 mg/kg
# Method: as §3
# as §4, with “control. […]” for “control.”
# as §2
# as §5, with “test). […]” for “test).”
# Osgin1 = assay: as above; assay type: in vivo, C57BL/6 mice; settings: MMF IV 30 mpk, Study 2; for Osgin1 fold change vs vehicle, jejunum / Osgin1 fold change vs vehicle, kidney: 30 mg/kg
# Method: as §3
# as §4, with “control. […]” for “control.”
# as §2
# as §5, with “test). […]” for “test).”
# blood cell populations = assay: Complete blood count (CBC) with differential after IV dosing; assay type: in vivo, C57BL/6 mice; settings: Study 2, single IV dose DMF 30 mg/kg or MMF 27.08 mg/kg
# Method: Whole blood samples (250 μL) were collected in EDTA tubes at indicated time points after dosing, and were maintained at 4° C. until analysis for CBC with differential at Charles River Laboratories (analyzed within 24-36 hours from time of collection).
# Statistical analyses on blood cell fractions were not completed due to the overall variability and low number of replicates for the samples in this pilot study.
# as §6
# [3] = PET/MR imaging of (^11C)DMF tissue distribution after oral or intravenous administration; assay type: in vivo, CD1 mice
# Method: To determine the localization and retention of DMF administered by different routes in vivo, mice were administered isotopically labeled DMF either orally or through tail vein injections. […] Acquired images from PET experiments were analyzed using inviCRO software. […] All animals were anaesthetized during image acquisition. […] The imaging data from the three groups of treated animals were quantified according to tissue type using inviCRO image analysis software. Regions of Interest (ROIs) for the brain, heart, liver, kidneys, scapular muscle, and whole body were defined by fitting ellipsoids of fixed volume to the regions. The scapular muscle ROI was hand-drawn and is not representative of all mouse muscle, but is composed of only a small region of its respective ROI.
molecule,measurement,setting,value
"COC(=O)/[14CH]=[14CH]/C(=O)OC [(^14C)DMF, [2,3-^14C] DMF]",(^14C) signal in sagittal section,[1]; IV 0.5 mg/kg,displayed signal in the kidneys and brain
same,(^14C) signal in sagittal section,[1]; PO 0.5 mg/kg,had less signal in the brain
"COC(=O)/C=C/C(=O)O [MMF, monomethyl fumarate]",Kp at 10 min,"[2]; C57BL/6, mouse, brain, Study 2, MMF IV 27.08 mg/kg, 10 minutes, read-out: Brain to plasma MMF ratio (tissue [MMF]/plasma [MMF]*100)",7.2 ± 3
same,concentration at 10 min,"[2]; C57BL/6, mouse, plasma, Study 2, MMF IV 27.08 mg/kg, 10 minutes, n=4, read-out: MMF level in plasma",13000 ng/mL and 100 µM
same,"Difference in brain MMF levels, animals receiving MMF compared to DMF via IV dosing","[2]; Study 2, 10 minutes, not significant",31%
same,MMF level in plasma or any tissues,"[2]; Study 2, 2 hours, DMF 30 mg/kg or MMF 27.08 mg/kg IV",no detectable MMF in plasma or in any tissues
same,"MMF levels in kidney, jejunum and spleen, DMF versus MMF","[2]; Study 2, IV, 10 minutes",no significant differences were noted in MMF levels
same,"Tissue penetration ratios in kidney, jejunum or spleen, DMF versus MMF","[2]; Study 2, IV, 10 minutes",no significant differences in tissue penetration ratios
same,"Akr1b8 fold change vs vehicle, brain",Akr1b8; 2 hr,1.0 ± 0.2 fold
same,"Akr1b8 fold change vs vehicle, kidney",Akr1b8; 2 hr,1.2 ± 0.1 fold
same,"Akr1b8 fold change vs vehicle, jejunum","Akr1b8; 2 hr, 30 mg/kg",2.4±0.7 fold
same,"Akr1b8 fold change vs vehicle, brain",Akr1b8; 6 hr,1.0 ± 0.1 fold
same,"Akr1b8 fold change vs vehicle, jejunum",Akr1b8; 6 hr,2.9 ± 1.2 fold
same,"Akr1b8 fold change vs vehicle, kidney","Akr1b8; 6 hr, 30 mg/kg",1.5±0.1 fold
same,"Gclc fold change vs vehicle, brain",Gclc; 2 hr,1.0 ± 0.0 fold
same,"Gclc fold change vs vehicle, jejunum",Gclc; 2 hr,1.2 ± 0.3 fold
same,"Gclc fold change vs vehicle, kidney","Gclc; 2 hr, 30 mg/kg",1.9±0.7 fold
same,"Gclc fold change vs vehicle, brain",Gclc; 6 hr,1.0 ± 0.1 fold
same,"Gclc fold change vs vehicle, jejunum","Gclc; 6 hr, 30 mg/kg",1.5±0.1 fold
same,"Gclc fold change vs vehicle, kidney","Gclc; 6 hr, 30 mg/kg",2.3±0.6 fold
same,"Hmox1 fold change vs vehicle, brain",Hmox1; 2 hr,1.0 ± 0.1 fold
same,"Hmox1 fold change vs vehicle, jejunum",Hmox1; 2 hr,0.9 ± 0.1 fold
same,"Hmox1 fold change vs vehicle, kidney",Hmox1; 2 hr,1.6 ± 0.3 fold
same,"Hmox1 fold change vs vehicle, brain",Hmox1; 6 hr,1.0 ± 0.0 fold
same,"Hmox1 fold change vs vehicle, jejunum",Hmox1; 6 hr,1.1 ± 0.1 fold
same,"Hmox1 fold change vs vehicle, kidney",Hmox1; 6 hr,3.3 ± 0.8 fold
same,"Nqo1 fold change vs vehicle, brain",Nqo1; 2 hr,1.1 ± 0.1 fold
same,"Nqo1 fold change vs vehicle, jejunum",Nqo1; 2 hr,1.5±0.2 fold
same,"Nqo1 fold change vs vehicle, kidney",Nqo1; 2 hr,1.6±0.4 fold
same,"Nqo1 fold change vs vehicle, brain",Nqo1; 6 hr,1.2 ± 0.1 fold
same,"Nqo1 fold change vs vehicle, jejunum",Nqo1; 6 hr,1.7±0.1 fold
same,"Nqo1 fold change vs vehicle, kidney",Nqo1; 6 hr,2.3±0.3 fold
same,"Osgin1 fold change vs vehicle, brain",Osgin1; 2 hr,1.9 ± 0.3 fold
same,"Osgin1 fold change vs vehicle, jejunum",Osgin1; 2 hr,1.6±0.1 fold
same,"Osgin1 fold change vs vehicle, kidney",Osgin1; 2 hr,2.4±0.8 fold
same,"Osgin1 fold change vs vehicle, brain",Osgin1; 6 hr,1.1 ± 0.1 fold
same,"Osgin1 fold change vs vehicle, jejunum",Osgin1; 6 hr,1.2±0.1 fold
same,"Osgin1 fold change vs vehicle, kidney",Osgin1; 6 hr,1.4±0.0 fold
same,"Reduction in white blood cell counts (neutrophils, lymphocytes, monocytes, eosinophils, basophils)",blood cell populations; 2-hour time point,did not specifically coincide with DMF or MMF treatment
same,"Effect on red blood cells, hemoglobin, hematocrit, mean corpuscular volume, platelets","blood cell populations; 10 minutes, 2 and 6 hours","no effect on red blood cells, hemoglobin, hematocrit, mean corpuscular volume, or platelets"
(^11C) dimethyl fumarate [(^11C)DMF],PET signal distribution in tissues,"[3]; IV 0.5 mg/kg, imaged up to 90 minutes, 0.5 mg/kg","positive signal throughout various tissues of the body including the brain and heart; also recorded: signal was higher in most tissues; also recorded: localized in numerous tissues, including the brain, as early as 30 seconds after administration"
same,PET signal in brain regions,"[3]; IV 0.5 mg/kg, 0.5 mg/kg",high levels of signal in all regions of the brain throughout the observation period; also recorded: all emitted a strong signal as compared to olfactory regions
same,PET signal in brain regions,[3]; PO 0.5 mg/kg or 200 mg/kg,almost no signal was detected in any region; also recorded: significantly lower levels of signal throughout the brain
